“Also recorded” adds a separate entry of the source.
Tested on: LAGλ-1 tumor
Assay: LAGλ-1 human MM xenograft in SCID mice
Assay type: in vivo, CB17 SCID mice
Conditions: melphalan 3 mg/kg twice weekly i.p., vs untreated mice
Excerpt: Serum human BCMA levels also correlated with tumor growth, IgG levels and response to treatment in mice bearing another human MM xenograft, LAGλ-1. Untreated mice (n=4) had large tumor volumes and high serum IgG and BCMA levels. […] Human BCMA was not detected in the serum of non-tumor bearing SCID mice (data not shown).

N[C@@H](Cc1ccc(N(CCCl)CCCl)cc1)C(=O)O [melphalan, Melphalan]
tumor volumes (P<0.0001): smaller; also recorded: small tumor volumes | serum IgG levels (P=0.0033): smaller; also recorded: significantly reduced | serum human BCMA levels (P=0.0055): smaller; also recorded: significantly reduced

From patent US12174189B2, “Diagnostic, prognostic, and monitoring methods for chronic lymphocytic leukemia” (INSTITUTE FOR MYELOMA & BONE CANCER RESEARCH, priority 2013, dated 2024)
